In US9695155B2, “Herbicidal substituted pyrimidinyloxy benzene compounds” (E. I. DU PONT DE NEMOURS AND COMPANY, priority 2013, dated 2017):

Assays:
pigweed [1] = assay: Test A preemergence; format: in vivo, Amaranthus retroflexus; details: for Plant response rating, Pigweed: 0 to 100 scale where 0 is no effect and 100 is complete control
In short: (§1)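 Pre- and postemergence greenhouse screen. Soil: loam + sand. Spray carrier: solvent mixture, non-phytotoxic, with surfactant. Post timing at 1–2 leaves, height 2–10 cm. Readout: visual injury on a 0–100 scale roughly 10 days after application, untreated plants as reference.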

pigweed [2] = assay: Test A postemergence; format: in vivo, Amaranthus retroflexus; details: for Plant response rating, Pigweed: 0 to 100 scale, 0 no effect, 100 complete control
In short: as §1

sedge, umbrella = assay: Test B flooded paddy test; format: in vivo, Cyperus difformis; details: Flood, 250 g ai/ha; 0 to 100 scale where 0 is no effect and 100 is complete control
In short: (§2)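 Greenhouse flooded-pot test: compounds dosed into 3 cm standing water over 2-leaf plants, flood held constant. Rated visually after 13–15 days on 0–100 (complete control = 100); a dash marks no test result.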

Heteranthera limosa = assay: Test B flooded paddy test; format: in vivo; details: Flood, 250 g ai/ha; 0 to 100 scale where 0 is no effect and 100 is complete control
In short: as §2

barnyardgrass [3] = assay: Test B flooded paddy test; format: in vivo, Echinochloa crus-galli; details: Flood, 250 g ai/ha; 0 to 100 scale where 0 is no effect and 100 is complete control
In short: as §2

wheat, winter = assay: Test C postemergence; format: in vivo, Triticum aestivum; details: for Plant response rating (0 to 100), Wheat: 0 is no effect, 100 is complete control
In short: (§3)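 Sown in loam/sand → sprayed pre-emergence; or grown to 1–4 leaves in peat mix → sprayed post-emergence. Same solvent/surfactant formulation both ways. Greenhouse 13–15 d. Score 0–100 visual.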

corn = assay: Test C postemergence; format: in vivo, Zea mays; details: for Plant response rating (0 to 100), Corn: 0 is no effect, 100 is complete control
In short: as §3

large (Lg) crabgrass = assay: Test C postemergence; format: in vivo, Digitaria sanguinalis; details: for Plant response rating (0 to 100), Crabgrass, Large: 0 is no effect, 100 is complete control
In short: as §3

johnsongrass = assay: Test C postemergence; format: in vivo, Sorghum halepense; details: for Plant response rating (0 to 100), Johnsongrass: 0 is no effect, 100 is complete control
In short: as §3

barnyardgrass [4] = assay: Test C postemergence; format: in vivo, Echinochloa crus-galli; details: for Plant response rating (0 to 100), Barnyardgrass: 0 is no effect, 100 is complete control
In short: as §3

oilseed rape = assay: Test C postemergence; format: in vivo, Brassica napus; details: for Plant response rating (0 to 100), Oilseed Rape: 0 is no effect, 100 is complete control
From the text: Seeds of plant species selected from blackgrass (Alopecurus myosuroides), Italian ryegrass (Lolium multiflorum), wheat, winter (winter wheat, Triticum aestivum), galium (catchweed bedstraw, Galium aparine), corn (Zea mays), large (Lg) crabgrass (Digitaria sanguinalis), giant foxtail (Setaria faberii), johnsongrass (Sorghum halepense), lambsquarters (Chenopodium album), morningglory (Ipomoea coccinea), yellow nutsedge (Cyperus esculentus), pigweed (Amaranthus retroflexus), ragweed (common ragweed, Ambrosia elatior), soybean (Glycine max), barnyardgrass (Echinochloa crus-galli), oilseed rape (Brassica napus), waterhemp (common waterhemp, Amaranthus rudis), kochia (Kochia scoparia), wild oat (Avena fatua), surinam grass (Brachiaria decumbens), foxtail, green (green foxtail, Setaria viridis), goosegrass (Eleusine indica), bromegrass, downy (downy bromegrass, Bromus tectorum), nightshade (eastern black nightshade, Solanum ptycanthum), cocklebur (common cocklebur, Xanthium strumarium), cupgrass, woolly (woolly cupgrass, Eriochloa villosa), bermudagrass (Cynodon dactylon), sunflower, (common oilseed sunflower, Helianthus annuus), Russian thistle (Salsola kali), and velvetleaf (Abutilon theophrasti) were planted into a blend of loam soil and sand and treated preemergence with test chemicals formulated in a non-phytotoxic solvent mixture which included a surfactant.
At the same time, plants selected from these crop and weed species and also barley, winter (winter barley, Hordeum vulgare), windgrass (Apera spica-venti), chickweed (common chickweed, Stellaria media), deadnettle (henbit deadnettle, Lamium amplexicaule), and canarygrass (littleseed canarygrass, Phalaris minor) were planted in pots containing Redi-Earth® planting medium (Scotts Company, 14111 Scottslawn Road, Marysville, Ohio 43041) comprising spaghnum peat moss, vermiculite, wetting agent and starter nutrients and treated with postemergence applications of test chemicals formulated in the same manner. Plants ranged in height from 2 to 18 cm (1- to 4-leaf stage) for postemergence treatments. Treated plants and controls were maintained in a greenhouse for 13 to 15 days, after which time all species were compared to controls and visually evaluated. Plant response ratings, summarized in Table C, are based on a scale of 0 to 100 where 0 is no effect and 100 is complete control. A dash (-) response means no test result.

waterhemp = assay: Test C postemergence; format: in vivo, Amaranthus rudis; details: for Plant response rating (0 to 100), Waterhemp: 0 is no effect, 100 is complete control
In short: as §3

chickweed = assay: Test C postemergence; format: in vivo, Stellaria media; details: for Plant response rating (0 to 100), Chickweed: 0 is no effect, 100 is complete control
In short: as §3

[5] = 31 g ai/ha, postemergence, visual rating, scale 0 to 100 (0 no effect, 100 complete control), 13 to 15 days
[6] = 125 g ai/ha, postemergence, visual rating, scale 0 to 100 (0 no effect, 100 complete control)
[7] = Postemergence, 62 g ai/ha, scale 0 to 100 (0 no effect, 100 complete control)

## FCc1cccc(Oc2ncc(F)cn2)c1-n1cc(I)cn1 [Compound 152]
Pigweed [1]; 31 g ai/ha, visual, approximately 10 days
  Plant response rating, Pigweed: 90
Pigweed [1]; 125 g ai/ha
  Plant response rating, Pigweed: 90
Pigweed [2]; 31 g ai/ha
  Plant response rating, Pigweed: 0
Pigweed [2]; 125 g ai/ha, 0 to 100 scale where 0 is no effect and 100 is complete control
  Pigweed plant response rating: 90
sedge, umbrella
  Plant response rating, Sedge, Umbrella: 50
Heteranthera limosa
  Plant response rating, Ducksalad: 60
Barnyardgrass [3]
  Plant response rating, Barnyardgrass: 0
wheat, winter; 8 g ai/ha, postemergence
  Plant response rating (0 to 100), Wheat: 0
wheat, winter; 16 g ai/ha, postemergence
  Plant response rating (0 to 100), Wheat: 0
wheat, winter; [5]
  Wheat plant response rating: 0
corn; 4 g ai/ha, postemergence
  Plant response rating (0 to 100), Corn: 0
corn; 8 g ai/ha, postemergence
  Plant response rating (0 to 100), Corn: 0
corn; 16 g ai/ha, postemergence
  Plant response rating (0 to 100), Corn: 5
corn; [5]
  Corn plant response rating: 5
Large (Lg) crabgrass; 8 g ai/ha, postemergence
  Plant response rating (0 to 100), Crabgrass, Large: 5
Large (Lg) crabgrass; 16 g ai/ha, postemergence
  Plant response rating (0 to 100), Crabgrass, Large: 5
Large (Lg) crabgrass; [5]
  Crabgrass, Large plant response rating: 5
johnsongrass; 8 g ai/ha, postemergence
  Plant response rating (0 to 100), Johnsongrass: 0
johnsongrass; 16 g ai/ha, postemergence
  Plant response rating (0 to 100), Johnsongrass: 5
johnsongrass; [5]
  Johnsongrass plant response rating: 5
Barnyardgrass [4]; 4 g ai/ha, postemergence
  Plant response rating (0 to 100), Barnyardgrass: 0
Barnyardgrass [4]; 8 g ai/ha, postemergence
  Plant response rating (0 to 100), Barnyardgrass: 0
Barnyardgrass [4]; 16 g ai/ha, postemergence
  Plant response rating (0 to 100), Barnyardgrass: 5
Barnyardgrass [4]; [5]
  Barnyardgrass plant response rating: 5
Oilseed rape; 8 g ai/ha, postemergence
  Plant response rating (0 to 100), Oilseed Rape: 5
Oilseed rape; 16 g ai/ha, postemergence
  Plant response rating (0 to 100), Oilseed Rape: 35
Oilseed rape; [5]
  Oilseed Rape plant response rating: 60
waterhemp; 8 g ai/ha, postemergence
  Plant response rating (0 to 100), Waterhemp: 15
waterhemp; 16 g ai/ha, postemergence
  Plant response rating (0 to 100), Waterhemp: 45
waterhemp; [5]
  Waterhemp plant response rating: 60
chickweed; 4 g ai/ha, postemergence
  Plant response rating (0 to 100), Chickweed: 5
chickweed; 8 g ai/ha, postemergence
  Plant response rating (0 to 100), Chickweed: 5
chickweed; 16 g ai/ha, postemergence
  Plant response rating (0 to 100), Chickweed: 10
chickweed; [5]
  Chickweed plant response rating: 30

## FCc1cn(-c2ccccc2Oc2ncc(Cl)cn2)nn1 [Compound 123]
Pigweed [1]; 1000 g ai/ha, 0 to 100 scale, 0 no effect, 100 complete control, approx. 10 days
  Pigweed plant response rating: 100
Pigweed [2]; 1000 g ai/ha
  Plant response rating, Pigweed: 100
sedge, umbrella
  Plant response rating, Sedge, Umbrella: 40
Heteranthera limosa
  Plant response rating, Ducksalad: 80
Barnyardgrass [3]
  Plant response rating, Barnyardgrass: 35
wheat, winter; 16 g ai/ha, postemergence
  Plant response rating (0 to 100), Wheat: 0
wheat, winter; [6]
  Plant response rating, Wheat: 5
wheat, winter; [7]
  Plant response rating, Wheat: 0
corn; 16 g ai/ha, postemergence
  Plant response rating (0 to 100), Corn: 0
corn; [6]
  Plant response rating, Corn: 5
corn; [7]
  Plant response rating, Corn: 5
Large (Lg) crabgrass; 16 g ai/ha, postemergence
  Plant response rating (0 to 100), Crabgrass, Large: 0
Large (Lg) crabgrass; [6]
  Plant response rating, Crabgrass, Large: 5
Large (Lg) crabgrass; [7]
  Plant response rating, Crabgrass, Large: 5
johnsongrass; 16 g ai/ha, postemergence
  Plant response rating (0 to 100), Johnsongrass: 10
johnsongrass; [6]
  Plant response rating, Johnsongrass: 10
johnsongrass; [7]
  Plant response rating, Johnsongrass: 10
Barnyardgrass [4]; 16 g ai/ha, postemergence
  Plant response rating (0 to 100), Barnyardgrass: 10
Barnyardgrass [4]; [6]
  Plant response rating, Barnyardgrass: 15
Barnyardgrass [4]; Postemergence, 31 g ai/ha, scale 0 to 100 (0 no effect, 100 complete control), 13 to 15 days
  Plant response rating, Barnyardgrass: 15
Barnyardgrass [4]; [7]
  Plant response rating, Barnyardgrass: 15
Oilseed rape; 16 g ai/ha, postemergence
  Plant response rating (0 to 100), Oilseed Rape: 30
Oilseed rape; [6]
  Plant response rating, Oilseed Rape: 70
Oilseed rape; [7]
  Plant response rating, Oilseed Rape: 60
waterhemp; 16 g ai/ha, postemergence
  Plant response rating (0 to 100), Waterhemp: 25
waterhemp; [6]
  Plant response rating, Waterhemp: 80
waterhemp; [7]
  Plant response rating, Waterhemp: 80
chickweed; 16 g ai/ha, postemergence
  Plant response rating (0 to 100), Chickweed: 5
chickweed; [6]
  Plant response rating, Chickweed: 60
chickweed; [7]
  Plant response rating, Chickweed: 50
